Publication PMC4623604, “Discovery of Small Molecules that Inhibit the Disordered Protein, p27^Kip1” (Scientific Reports, 2015)

How the values were obtained:
p27-D2-FL/Cdk2/cyclin A = biological target: T1, p27-D2-FL/Cdk2/cyclin A (Homo sapiens, UniProt P46527, C99S/R93C); assay: Fluorescence anisotropy displacement of p27-D2-FL from Cdk2/cyclin A; assay type: binding; conditions: 20 nM p27-D2-FL, 300 nM Cdk2/cyclin A, SJ403 0-3 mM; read-out: IC50, reduction of fluorescence anisotropy of p27-D2-FL (displacement from Cdk2/cyclin A)
T1 construct: p27-D2 (residues 58-105 of human p27); 6xHis (N, cleaved yes); made in house; host or cells: E. coli for p27-D2
T1 sequence (P46527 58-105 R93C/C99S): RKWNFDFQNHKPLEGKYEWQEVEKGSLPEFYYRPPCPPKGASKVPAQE
Excerpt: We used the Group 2 molecule, SJ403 (Suppl. Table 1b), to test our hypothesis that molecules that bind to p27 can alter its Cdk regulatory function. […] We first used fluorescence anisotropy (FA) to monitor displacement of a single-cysteine (Cys) mutant of p27-D2, with arginine 93 mutated to Cys (R93C) and labeled with Alexa Fluor 488 (p27-D2-FL), from Cdk2/cyclin A by SJ403.
The p27-D2-C99S-R93C mutant was conjugated with Alexa Fluor488-C5-Maleimide (Life Technologies, p27-D2-FL) in buffer containing 20 mM Na phosphate, pH7.3, 20 mM NaCl according to the manufacturer’s protocol. The conjugated protein was further purified by reverse-phase high performance liquid chromatography (HPLC) using a C4 column (Vydac) and 0.1% trifluoroacetic acid-containing water/acetonitrile solvent system. Lyophilized HPLC fractions were resuspended in buffer containing 20 mM Na phosphate, pH 7, 200 mM NaCl, 3.5 mM TCEP. Fluorescence anisotropy measurements were performed at 25 °C on a Horiba Fluorolog 3 spectrofluorometer. Briefly, p27-D2-FL (20 nM) was mixed with Cdk2/Cyclin A (300 nM) and added to the required amount of lyophilized compound (SJ403). All samples have been incubated overnight in the dark at 4 °C prior to fluorescence measurements. Fluorescence anisotropy binding data was analyzed using KaleidaGraph. […]

Cdk2/cyclin A = biological target: T2, Cdk2/cyclin A (Homo sapiens, UniProt P24941); assay: Cdk2/cyclin A kinase activity assay (Histone H1 substrate); assay type: biochemical; conditions: SJ403 alone, 10 μM to 3 mM, 200 pM Cdk2/cyclin A
T2 construct: Full length human Cdk2, active Cdk2 (phosphorylated at threonine 160); truncated human cyclin A (residues 173–432); made in house
Description: Cdk2/Cyclin A (200 pM) was mixed with Histone H1 (15 μM; EMD Millipore), p27-D2 (200 nM) and varied amounts of lyophilized SJ403 and incubated overnight at 4 °C. The effect of the SJ403 compound on Cdk2 activity was determined by performing similar experiments in the absence of p27-D2. Subsequently, ATP (50 μM total concentration, of which 6 μCi γ ^32P-ATP (PerkinElmer, Inc)) was added to each reaction and further incubated for 35 minutes at 30 °C. […] The sample buffer contained 20 mM HEPES pH 7.3, 25 mM sodium β-glycerolphosphate, 15 mM MgCl2, 16 mM EGTA, 0.5 mM Na3VO4 and 10 mM DTT. The reactions were quenched by addition of SDS-gel loading buffer (5 μL) and then analyzed by SDS-PAGE (10 μL). The gels were dried at 70 °C under vacuum and a phosphoimager (GE Healthcare, Piscataway, NJ) was used to quantify the ^32P-Histone H1 bands. IC50 values were determined by curve fitting using KaleidaGraph software. Experiments were performed in triplicate and mean IC50 and standard deviations of the mean values are reported.

p27-KID mutants [1] = biological target: T3, p27-KID mutants (Homo sapiens, UniProt P46527, Y88A); assay: 2D NMR binding mapping with p27-KID mutants
T3 construct: 6xHis (N, cleaved yes); made in house; host or cells: E. coli (pET28a)
T3 sequence (P46527 22-105 Y88A): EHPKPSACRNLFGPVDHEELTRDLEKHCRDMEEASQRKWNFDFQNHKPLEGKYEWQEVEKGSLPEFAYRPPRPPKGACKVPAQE
Excerpt: (§1) (Fig. 7a–c); these interaction sites are all within the Cdk2-binding D2 sub-domain. […] In fact, sub-domain D2 contains eight of the nine aromatic amino acids found within p27; a ninth, F33, is found within sub-domain D1 but […] to small molecules. Group 1 molecules caused the largest CSPs for residues F87, Y88 and Y89 within sub-region D2.3 and Group 2 molecules perturbed resonances for these residues as well as for residues W60, N61 (sub-region D2.1) and E75, W76 and Q77 (sub-region D2.2).
(§2) The p27 constructs were expressed in E. Coli with an N-terminal 6xHis affinity tag after sub-cloning into pET28a (Novagen) using established procedures. […]
(§3) Screening and validation NMR experiments were performed at 298 K (25 °C) using either a Varian Inova 600 MHz spectrometer equipped with a triple resonance (HCN) room temperature gradient probe or a Bruker Avance 600 MHz spectrometer equipped with TCI cryogenic gradient probe and a SampleJet sample changer. Fragment molecules were initially analyzed as pools of five molecules dissolved at 10 mM each in DMSO-D6. […] NMR spectra were recorded for compound pools without and with protein. […] 2D ^1H-^15N TROSY-HSQC NMR experiments with ^2H/^13C/^15N-p27-D2/Cdk2/cyclin A and SJ403 have been recorded at 308 K (35 °C). […] NMR spectra were processed using Bruker Topspin software and analyzed using computer-aided resonance assignment (CARA) software.

p27-KID mutants [2] = assay: 2D NMR binding mapping with p27-KID mutants; set-up: species or system human
Excerpt: as §1, §2, §3

SMILES: CCn1c(C)c(C)n2c3c(=O)n(C)c(=O)n(C)c3nc12 [SJ403]
- IC50 (p27-D2-FL/Cdk2/cyclin A): 475 ± 67 µM
- effect on Cdk2/cyclin A activity in the absence of p27-D2 (Cdk2/cyclin A): substantially inhibited
- CSPs with Y88 to A p27-KID mutant (p27-KID mutants [1]): caused CSPs near the two W residues (W60 or W76) but not within the F87A88Y89 region
- CSPs with doubly mutated p27-KID variants (W60A-W76A, W60F-W76F) (p27-KID mutants [2]): only very weak CSPs within the F87YY89 aromatic cluster
